From publication PMC9953701 (Biomedicines, 2023) come the findings set out here.

The test system of data set [1] is Candida albicans ATCC 90028. It counts as cell-based. To be noted: C. albicans; Control: two-step microdilution assay in Tris buffer 10 mM without salts; median of triplicates. How it is done: (§1) The three bacterial strains—Escherichia coli ATCC 25922, Pseudomonas aeruginosa ATCC 27853, and Staphylococcus aureus ATCC 29213—as well as the fungal strain Candida albicans ATCC 90028 were provided by the Department of Clinical Bacteriology, Lund University Hospital. Bacillus subtilis CCUG 163B^T and Bacillus cereus CCUG 7414^T were obtained from the Department of Molecular Sciences, Swedish University of Agricultural Sciences.
(§2) Antimicrobial activities of the peptides were evaluated using the two-step microdilution assay, which is designed for testing AMPs without activity-inhibiting components. Briefly, bacteria were grown to the mid-logarithmic phase at 37 °C in 3% (w/v) tryptic soy broth (TSB) (Merck KGaA, Darmstadt, Germany). The microbial culture was washed twice by centrifugation and resuspension in 10 mM Tris buffer (pH 7.4 at 37 °C, adjusted by HCl). The microbial suspension was quantified by OD600, diluted, and transferred to 96-well untreated polystyrene microplates prepared with 2-fold serial dilutions of the peptides using 50,000 bacteria per well (all dilutions in Tris buffer). These were incubated for 5 h at 37 °C, after which 5 µL of 20% (w/v) TSB was added to each well and the microplates were re-incubated for an additional 6–12 h (depending on the growth rate of each organism). All MICs presented are the medians from triplicate experiments performed independently.
(§3) A two-step assay was supplemented with a physiological concentration of salts and diluted human serum and the MIC of the peptides was evaluated as in 4.6.
In general terms: Dilution methods test growth across graded concentrations, often in twofold steps.

The subject of data set [2] is Pseudomonas aeruginosa ATCC 27853. It counts as cell-based. To be noted: P. aeruginosa; Control: two-step microdilution assay in Tris buffer 10 mM without salts; median of triplicates. How it is done: as §1, §2, §3
Data set [3] relates to Staphylococcus aureus ATCC 29213. Format: cell-based. The settings on record: S. aureus; Control: two-step microdilution assay in Tris buffer 10 mM without salts; median of triplicates. The protocol: as §1, §2, §3
The test system of data set [4] is Salmonella enterica serovar Typhimurium DA6192 wild type and LL-37-resistant mutants (waaY, phoP). Put plainly: MIC against LL-37-resistant strains in buffer conditions. Format: cell-based. The arrangement: unit not given here. To be noted: 20 mM sodium phosphate buffer with 0.1% TSB, 16 to 20 h, 37 °C. The protocol:
(§4) The LL-37 resistant mutants (DA22427 and DA23307) used in this study were derived from Salmonella enterica serovar Typhimurium DA6192, wild-type and cyclotides-resistant mutants (DA54114 and DA57107) were derived from E. coli MG1655 (wild type) and were kindly provided by Department of Medical Biochemistry and Microbiology, Uppsala University.
(§5) MIC measurements were performed in 20 mM sodium phosphate buffer (PBS), supplemented with 0.1% TSB in 96-well plates (round bottom, Nunc A/S, Roskilde, Denmark) in a total volume of 100 µL. The overnight cultures were diluted 5 × 10^5 CFU/mL in the same medium and 90 µL was transferred into the plates containing 10 µL of 2-fold diluted peptides. […] At least two independent experiments were performed with two technical replicates. In cyclotides, resistant mutant average MIC was reported.

Data set [5] relates to E. coli MG1655 wild type and cyclotides-resistant mutants. Put plainly: MIC against cyclotide-resistant strains in buffer conditions. Also on record: unit not given here. It counts as cell-based, Escherichia coli. The protocol: as §4, §5
In data set [6] the test system is Bacillus cereus CCUG 7414T. It counts as cell-based. To be noted: CCUG 7414, 24 h.
Description: as §1
(§6) The standard broth microdilution assay was utilized to assess the MIC of designed peptides according to the guidelines of the Clinical and Laboratory Standards Institute (CLSI). Briefly, bacteria were grown in unbuffered Mueller–Hinton Broth (MHB, VWR International, Leuven, Belgium) as well as buffered (containing 50 mM NaHCO3) medium to the mid-logarithmic phase and were quantified by OD600. The bacterial suspension was diluted in the same medium to reach a final density of 1 × 10^6 colony-forming unit per milliliter (CFU/mL). A volume of 50 µL of the bacterial suspension was added to 96-well plates containing 50 µL of MHB in the absence (viability control) or the presence of the peptides at different concentrations (0.625–80 µM). […] MIC values were derived from 3 sets of independent experiments with different bacterial cultures.

The subject of data set [7] is Bacillus subtilis CCUG 163BT. Format: cell-based. The settings on record: CCUG 163, 24 h.
Description: as §1, §6

Data set [8] concerns the target T1, aureolysin from S. aureus (Staphylococcus aureus, UniProt P81177).
T1 construct: purchased
Description: Stability in the presence of the protease aureolysin. The settings on record: peptide:enzyme 200:1, 37 °C, RP-HPLC-MS. It counts as in vitro ADME. The protocol:
Peptide stability was also assayed in commercially available Gram-positive, S. aureus protease, aureolysin. […] All the samples were then incubated at 37 °C at different incubation times. The reaction was quenched by acidifying with 5 µL of 0.1% formic acid. The samples were analyzed on MS coupled to RP-HPLC.

Data set [9] is described as follows: Liposome leakage assay (carboxyfluorescein efflux). The settings on record: E. coli lipid liposomes versus POPC/cholesterol liposomes, 45 min, 37 °C. The protocol: The liposome leakage assay was performed as described previously. In brief, the following lipids/lipid mixture was used: Escherichia coli polar lipid extract or 1-palmitoyl-2-oleoyl-sn-glycerol-3-phosphocoline1-palmitoyl-2-oleoyl-sn-glycerol (POPC, both from Avanti Polar Lipids, Alabaster, US-AL) and cholesterol (Sigma Aldrich). The lipid bilayers were formed on round-bottom flask walls by dissolving lipids in chloroform was evaporated under a flow of N2 and the lipid bilayer was placed in a vacuum overnight. Lipid bilayers were re-suspended in an aqueous solution of 100 mM 5(6)-carboxyfluorescein in 10 mM Tris buffer. […] Membrane permeability was measured by monitoring carboxyfluorescein efflux from the liposomes to the external low-concentration environment, resulting in loss of self-quenching and an increased fluorescence signal with excitation and emission wavelengths of 492 and 517 nm, respectively. […] The effect on liposome permeability for each peptide concentration was monitored for 45 min, at which point leakage had largely subsided. […] The EC50 values are (when applicable) calculated using sigmoidal dose–response curves, with the leakage percentage (0–100 constraints) as a function of the peptide concentration (log10), using GraphPad Prism.

Data set [10] concerns Bacillus subtilis CCUG 163BT. It counts as cell-based. The settings on record: CCUG 163, 5 h. The protocol:
as §1, §2

The subject of data set [11] is Escherichia coli ATCC 25922. Format: cell-based. To be noted: ATCC 25922, 24 h.
Description: as §1, §6

Data set [12] deals with Pseudomonas aeruginosa ATCC 27853. It counts as cell-based. To be noted: ATCC 27853, 24 h.
Description: as §1, §6

The subject of data set [13] is Staphylococcus aureus ATCC 29213. Format: cell-based. To be noted: ATCC 29213, 24 h.
Description: as §1, §6

The mark [14] stands for this setting: S. typhimurium phoP LL-37-resistant mutant.
[15] abbreviates: S. typhimurium waaY LL-37-resistant mutant.

Values after ≈ are worked out from the molar mass of the structure shown. Read-outs that look alike come from different tables or passages of the source. Positions of bridges follow the written chain, without caps; N, C: chain ends. Residues, ends and D or L forms follow the SMILES beside them.

T1 sequence (P81177 209-509): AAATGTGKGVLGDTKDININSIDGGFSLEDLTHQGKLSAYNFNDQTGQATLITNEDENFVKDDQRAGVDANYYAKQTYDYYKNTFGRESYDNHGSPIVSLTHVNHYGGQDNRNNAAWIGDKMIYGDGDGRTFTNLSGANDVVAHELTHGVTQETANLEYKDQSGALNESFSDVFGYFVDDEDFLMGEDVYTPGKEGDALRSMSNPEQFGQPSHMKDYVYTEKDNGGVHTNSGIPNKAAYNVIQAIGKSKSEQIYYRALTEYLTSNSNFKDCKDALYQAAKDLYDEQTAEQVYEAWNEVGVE

Regarding `CC[C@H](C)[C@@H]1NC(=O)[C@H](CCCNC(=N)N)NC(=O)[C@@H]2CSSC[C@H](NC(=O)[C@H](CCCCN)NC(=O)[C@H]([C@@H](C)CC)NC(=O)[C@H](CCCNC(=N)N)NC(=O)[C@H](CCCCN)NC(=O)[C@H](C(C)C)NC(=O)[C@H]([C@@H](C)CC)NC(=O)[C@H](CCCNC(=N)N)NC(=O)[C@H](CCCCN)NC(=O)CNC(=O)CNC(=O)[C@@H]3CCCN3C(=O)CNC(=O)[C@H](CCCNC(=N)N)NC(=O)[C@H](CC(C)C)NC(=O)[C@H](Cc3ccccc3)NC(=O)[C@H](C)NC(=O)[C@H](CCCCN)NC1=O)C(=O)N[C@@H](Cc1ccccc1)C(=O)N[C@@H](CC(C)C)C(=O)N[C@@H](CCCNC(=N)N)C(=O)NCC(=O)N1CCC[C@H]1C(=O)NCC(=O)NCC(=O)N[C@@H](CCCCN)C(=O)N[C@@H](CCCNC(=N)N)C(=O)N[C@@H]([C@@H](C)CC)C(=O)N[C@@H](C(C)C)C(=O)N2` [cd4-CCPP] (cyclo(CFLRGPGGKRIVCRIKAFLRGPGGKRIVKRIK); disulfide 1-13), the MIC worked out at 0.625 µM in [1]; 0.625 µM in data set [2]; 0.625 µM in [3]; 2.5 in data set [4] (S. typhimurium WT (DA6192)); 1.25 in [4] (setting [14]); 1.25 in [4] (setting [15]). The MIC in data set [5] (E. coli DA54114 cyclotide-resistant mutant, sodium phosphate buffer with 0.1% TSB, average MIC) is 0.25; in data set [5] (E. coli DA57107 cyclotide-resistant mutant, sodium phosphate buffer with 0.1% TSB, average MIC) it was 0.25; in data set [5] (E. coli WT (MG1655), 20 mM sodium phosphate buffer with 0.1% TSB, 16 to 20 h, 37 °C), 0.37; in data set [6], above 40 µM; in data set [7], above 40 µM. Moreover, the “time for which the peptide was stable in aureolysin (stable for up to)” value in data set [8] is at least 8 h. For the same molecule, the “bacterial target selectivity relative to LL-37 (factor)” value in data set [9] is reported as 6 fold.
With `CC[C@H](C)[C@@H]1NC(=O)[C@H](CCCNC(=N)N)NC(=O)[C@@H]2CSSC[C@H](NC(=O)[C@H](CCCCN)NC(=O)[C@H]([C@@H](C)CC)NC(=O)[C@H](CCCNC(=N)N)NC(=O)[C@H](CCCCN)NC(=O)[C@H](C(C)C)NC(=O)[C@H]([C@@H](C)CC)NC(=O)[C@H](CCCNC(=N)N)NC(=O)[C@H](CCCCN)NC(=O)CNC(=O)CNC(=O)[C@H](C)NC(=O)CNC(=O)[C@H](CCCNC(=N)N)NC(=O)[C@H](CC(C)C)NC(=O)[C@H](Cc3ccccc3)NC(=O)[C@H](C)NC(=O)[C@H](CCCCN)NC1=O)C(=O)N[C@@H](Cc1ccccc1)C(=O)N[C@@H](CC(C)C)C(=O)N[C@@H](CCCNC(=N)N)C(=O)NCC(=O)N[C@@H](C)C(=O)NCC(=O)NCC(=O)N[C@@H](CCCCN)C(=O)N[C@@H](CCCNC(=N)N)C(=O)N[C@@H]([C@@H](C)CC)C(=O)N[C@@H](C(C)C)C(=O)N2` [cd4-CC] (cyclo(CFLRGAGGKRIVCRIKAFLRGAGGKRIVKRIK); disulfide 1-13), the MIC in data set [4] (S. typhimurium WT (DA6192)) was 1.25; in data set [4] (setting [14]) it was 1.25; in data set [4] (setting [15]), 2.5; in data set [10], 0.625 µM (≈ 2.19 µg/mL); in data set [6], above 40 µM; in data set [7], above 40 µM. Also, the MIC was 5 µM (≈ 17.5 µg/mL) in [11], 5 µM (≈ 17.5 µg/mL) in data set [12] and above 40 µM in data set [13].
